Data as given in US9302996B2, “Continuous arycyclic compound” (MITSUBISHI TANABE PHARMA CORPORATION, priority 2010, dated 2016).
Where two headings read alike, the source gives them in different places. Marks after values point to notes of the source that are not given here.

Key:
Format in all cases: in vivo
KK-Ay mice = test: Weight gain-inhibiting action, hypoglycemic effect, insulin in blood plasma lowering action in KK-Ay mice; conditions: male KK-Ay mice, high fat diet, 2 weeks; for inhibition in vivo at 30 mg/kg: Mus musculus, 336 h, 30 mg/kg/day oral
Description: To 8 weeks-old male KK-Ay mice were provided high fat diet (Oriental Yeast Co., Ltd, 60 cal % fat), and Test compound suspended in 0.2% carboxymethylcellulose solution was orally administered once a day. Oral administration was continued for 2 weeks, and a weight gain-inhibiting rate of the Test compound was calculated by using a weight gain amount of the solvent control group during the test period as 100%. After final administration, the mice were fasted overnight, and blood was collected from tail vein. Measurement of a blood-sugar level was carried out by using glucose Cα Test Wako (Wako Pure Chemical Industries, Ltd.), and measurement of insulin in blood plasma was carried out by using a mouse insulin measurement kit (Morinaga Institute of Biological Science, Inc.).

ICR mice = test: Triglyceride (TG) in blood plasma increase-inhibiting action due to lipid administration; conditions: Mus musculus; male ICR mice, 5 mg/kg oral, lipid (Intralipos 20%) after 30 minutes, plasma TG 2 hours after lipid; read-out: Inhibiting rate of TG-increase in blood plasma (5 mg/kg)
Description: 6 to 9 weeks-old male ICR mice were fasted overnight, and Test compound suspended in 0.2% carboxymethyl cellulose solution was orally administered to the mice. A lipid (Intralipos 20%, OTSUKA PHARMACEUTICAL CO., LTD., 10 mL/kg) was orally administered after 30 minutes. Blood was collected from tail vein immediately before the lipid administration, and after 2 hours from the same to obtain blood plasma. Measurement of TG in blood plasma was carried out by using a triglyceride E Test Wako (Wako Pure Chemical Industries, Ltd.), and an increased value of TG in blood plasma by administration of the lipid was calculated. An increased value of TG in blood plasma in a solvent control group was used as a control, and an inhibiting rate in increase of TG in blood plasma in the Test compound administered group was calculated.

C57BL/6J mice = test: Antifeeding activity (high fat diet intake up to 4 hours); conditions: Mus musculus, male C57BL/6J mice, 5 mg/kg oral, food ingested up to 4 hours, read-out: Antifeeding rate (5 mg/kg)
Description: 7 to 10 weeks-old male C57BL/6J mice were fasted overnight, and the test compound suspended in 0.2% carboxymethylcellulose solution was orally administered. Immediately after the administration, high fat diet (Oriental Yeast Co., Ltd, 60 cal % fat) was provided and freely fed. An amount of food ingested up to 4 hours was measured, and a lowering rate (an antifeeding rate) of the amount of food ingested in the Test compound administered group was calculated as compared to that of the solvent control group as a control.

[1] = read-out: Hypoglycemic action (30 mg/kg/day)
[2] = read-out: Insulin in blood plasma-lowering action (30 mg/kg/day)
[3] = administration dose of 1 mg/kg/day oral

Structure (SMILES) | inhibition in vivo at 5 mg/kg (ICR mice) [%] | inhibition in vivo at 5 mg/kg (C57BL/6J mice) [%] | further results
CC(C)(COc1ccc(-c2ccc(-c3ncc(C(F)(F)F)[nH]3)cn2)cc1)C(=O)O [Example 1-3), 2,2-dimethyl-3-(4-{5-[5-(trifluoromethyl)-1H-imidazol-2-yl]pyridin-2-yl}phenoxy)propanoic acid] | – | – | inhibition in vivo at 30 mg/kg (KK-Ay mice; [1]): 43%; inhibition in vivo at 30 mg/kg (KK-Ay mice; [2]): 58%
CC(C)(COc1ccc(-c2ccc(-c3ncc(C(C)(C)C(F)(F)F)[nH]3)cn2)cc1)C(=O)O [Example 2-2), 2,2-dimethyl-3-(4-{5-[5-(2,2,2-trifluoro-1,1-dimethylethyl)-1H-imidazol-2-yl]pyridin-2-yl}phenoxy)propanoic acid] | 76 | 64 | –
CC(C)(COc1ccc(-c2ccc(-c3ncc(C(C)(C)C(F)(F)F)[nH]3)cn2)cc1)C(=O)O [Example 2-3), sodium 2,2-dimethyl-3-(4-{5-[5-(2,2,2-trifluoro-1,1-dimethylethyl)-1H-imidazol-2-yl]pyridin-2-yl}phenoxy)propanoate] | – | – | inhibition in vivo at 30 mg/kg (KK-Ay mice; [1]): 64%; inhibition in vivo at 30 mg/kg (KK-Ay mice; [2]): 62%; inhibition in vivo at 30 mg/kg (KK-Ay mice; read-out: Weight gain-inhibiting action (30 mg/kg/day)): 53%
Cc1cc(-c2ccc(-c3ncc(C(F)(F)F)[nH]3)cn2)ccc1OCC(C)(C)C(=O)O [Example 8-2), 2,2-dimethyl-3-[2-methyl-4-[5-[5-(trifluoromethyl)-1H-imidazol-2-yl]-2-pyridyl]phenoxy]propanoic acid] | 46 | 57 | –
Cc1cc(OCC(C)(C)C(=O)O)ccc1-c1ccc(-c2ncc(C(F)(F)F)[nH]2)cn1 [Example 9] | 75 | 76 | –
Cc1nc(OCC(C)(C)C(=O)O)ccc1-c1ccc(-c2ncc(C(F)(F)F)[nH]2)cn1 [Example 10] | 62 | 62 | –
O=C(O)CCCOc1ccc(-c2ccc(-c3ncc(C(F)(F)F)[nH]3)cn2)cc1 [Example 11] | 31 | – | –
CC(C)(COc1ccc(-c2ccc(-c3ncc(CC(F)F)[nH]3)cn2)cc1)C(=O)O [Example 12] | 51 | 40 | –
CC(C)(COc1ccc(-c2ccc(-c3ncc(C(F)(F)F)[nH]3)cn2)cn1)C(=O)O [Example 13-3), 2,2-dimethyl-3-[[5-[5-[4-(trifluoromethyl)-1H-imidazol-2-yl]-2-pyridyl]-2-pyridyl]oxy]propanoic acid] | 51 | 60 | –
O=C(O)CCCCOc1ccc(-c2ccc(-c3ncc(C(F)(F)F)[nH]3)cn2)cc1 [Example 15] | 32 | – | –
O=C(O)C1(COc2ccc(-c3ccc(-c4ncc(C(F)(F)F)[nH]4)nc3)cn2)CCCC1 [Example 16] | 74 | 75 | –
O=C(O)C1(COc2ccc(-c3ccc(-c4ncc(C(F)(F)F)[nH]4)cn3)cn2)CCCC1 [Example 17] | 69 | 82 | –
CC(C)(CCOc1ccc(-c2ccc(-c3ncc(C(F)(F)F)[nH]3)cn2)cc1)C(=O)O [Example 18-2), 2,2-dimethyl-4-[4-[5-[5-(trifluoromethyl)-1H-imidazol-2-yl]-2-pyridin]phenoxy]butanoic acid] | 69 | 83 | –
CCC(CC)(COc1ccc(-c2ccc(-c3ncc(C(F)(F)F)[nH]3)cn2)cc1)C(=O)O [Example 19-3), 2-ethyl-2-[[4-[5-[4-(trifluoromethyl)-1H-imidazol-2-yl]-2-pyridyl]phenoxy]methyl]butanoic acid] | 89 | 78 | –
O=C(O)C1(COc2ccc(-c3ccc(-c4ncc(C(F)(F)F)[nH]4)cn3)cc2)CCCC1 [Example 20] | 74 | 70 | –
O=C(O)C1(COc2ccc(-c3ccc(-c4ncc(C(F)(F)F)[nH]4)cn3)cc2)CCOCC1 [Example 21] | 20 | – | –
CC(C)(COc1ccc(-c2ccc(-c3ncc(CCC(F)(F)F)[nH]3)cn2)cc1)C(=O)O [Example 24] | 33 | – | –
CC(C)CCc1cnc(-c2ccc(-c3ccc(OCC(C)(C)C(=O)O)cc3)nc2)[nH]1 [Example 25] | 54 | 81 | –
CC(C)(COc1ccc(-c2ccc(-c3ncc(CC4CC4)[nH]3)cn2)cc1)C(=O)O [Example 27] | 69 | 66 | –
CC(C)c1cnc(-c2ccc(-c3ccc(OCC(C)(C)C(=O)O)cc3)nc2)[nH]1 [Example 28] | 59 | 54 | –
CCC(CC)c1cnc(-c2ccc(-c3ccc(OCC(C)(C)C(=O)O)cc3)nc2)[nH]1 [Example 29] | 52 | 28 | –

Structure (SMILES) | inhibition in vivo at 5 mg/kg (ICR mice) [%] | inhibition in vivo at 5 mg/kg (C57BL/6J mice) [%] | further results
CC(C)(COc1ccc(-c2ccc(-c3ncc(C4CCC(F)(F)CC4)[nH]3)cn2)cc1)C(=O)O [Example 34] | 19 | – | –
Cc1cc(OCC(C)(C)C(=O)O)ncc1-c1ccc(-c2ncc(C3(C(F)(F)F)CCC3)[nH]2)nc1 [Example 46] | 13 | – | –
CC(C)(COc1cnc(-c2ccc(-c3ncc(C4(C(F)(F)F)CCC4)[nH]3)cc2)cn1)C(=O)O [Example 48] | 23 | – | –
CC(C)(COc1cnc(-c2ccc(-c3ncc(C(C)(C)C(F)(F)F)[nH]3)cc2)cn1)C(=O)O [Example 50] | 21 | – | –
Cc1cc(OCC(C)(C)C(=O)O)ncc1-c1ccc(-c2ncc(C3(C(F)(F)F)CCC3)[nH]2)c(F)c1 [Example 52] | 26 | – | –
CC(C)(COc1ccc(-c2ccc(-c3ncc(C(C)(C)C(F)(F)F)[nH]3)c(F)c2)cn1)C(=O)O [Example 53] | 36 | – | –
CC(C)(COc1ccc(-c2ccc(-c3ncc(C4CCC4)[nH]3)cn2)cc1)C(=O)O [Example 55-2), 3-[4-[5-(5-cyclobutyl-1H-imidazol-2-yl)-2-pyridyl]phenoxy]-2,2-dimethylpropanoic acid] | – | 39 | –
CC(C)(COc1ccc(-c2ccc(-c3ncc(C(C)(C)C)[nH]3)cn2)cc1)C(=O)O [Example 57] | 43 | – | –
CC(C)(COc1ccc(-c2ccc(-c3ncc(C(F)(F)F)[nH]3)cn2)c(F)c1F)C(=O)O [Example 75] | 5 | – | –
CC(C)(COc1ccc(-c2ccc(-c3ncc(C(F)(F)F)[nH]3)c(F)c2F)cn1)C(=O)O [Example 80] | 41 | – | –
CC(C)(COc1ccc(-c2ccc(-c3nc(C(F)(F)F)c[nH]3)cn2)cc1)C(=O)O [Example 94-3), 2,2-dimethyl-3-[4-[5-[4-(trifluoromethyl)-1H-imidazol-2-yl]-2-pyridyl]phenoxy]propanoic acid] | – | – | Hypoglycemic action (KK-Ay mice; [3]): 42%*; Insulin in blood plasma-lowering action (KK-Ay mice; [3]): 29%*
Cc1cc(OCC2(C(=O)O)CC2)ncc1-c1ccc(-c2ncc(C(F)(F)F)[nH]2)c(Cl)c1 [Example 100-5), 1-{[(5-{3-chloro-4-[5-(trifluoromethyl)-1H-imidazol-2-yl]phenyl}-4-methylpyridin-2-yl)oxy]methyl}cyclopropanecarboxylic acid] | 60 | – | –
Cc1cc(OCC(C)(C)C(=O)O)ncc1-c1ccc(-c2ncc(CC(C)C)[nH]2)c(C)c1 [Example 103] | 8 | – | –
CC(C)(COc1ncc(-c2ccc(-c3ncc(C4(C(F)(F)F)CC4)[nH]3)cc2)cc1F)C(=O)O [Example 111] | 41 | – | –
CCC(CC)(COc1cc(C)c(-c2ccc(-c3ncc(C(F)(F)F)[nH]3)nc2)cn1)C(=O)O [Example 127] | 44 | – | –
COc1cc(-c2cnc(OCC(C)(C)C(=O)O)cc2C)ccc1-c1ncc(C(F)(F)F)[nH]1 [Example 129] | 16 | – | –
Cc1cc(OCC(C)(C)C(=O)O)ncc1-c1ccc(-c2ncc(C(F)(F)F)[nH]2)c(C2CC2)c1 [Example 131] | 57 | – | –
Cc1cc(OCC2(C(=O)O)CC2)ncc1-c1cnc(-c2ncc(C(F)(F)F)[nH]2)c(Cl)c1 [Example 139] | 52 | – | –
CC(C)(COc1ncc(-c2ccc(-c3ncc(C4(C(F)(F)F)CCC4)[nH]3)cc2)cc1F)C(=O)O [Example 144] | 7 | – | –
Cc1cc(-c2cnc(OCC(C)(C)C(=O)O)nc2)ccc1-c1ncc(C(F)(F)F)[nH]1 [Example 145] | 43 | – | –
